Data as given in ChEMBL document CHEMBL6177998, “Rational Design of Dual Degraders by Incorporating Molecular Glue Structural Features into PROTAC Degraders” (J Med Chem, 2025).
The source made the active and inactive calls. No cut-off for these calls is given here.

Key:
[1] = target: T1, Protein cereblon/Androgen receptor (Homo sapiens, UniProt P10275+Q96SW2); assay: PROTAC activity at CRBN/AR in human LNCaP cells assessed as decrease in TMPRSS2 protein level incubated for 24 hrs by Western blot analysis; type: cell-based; details: dose 1-100 nM
Target sequence in this assay (Q96SW2 whole entry, looked up, one chain of several): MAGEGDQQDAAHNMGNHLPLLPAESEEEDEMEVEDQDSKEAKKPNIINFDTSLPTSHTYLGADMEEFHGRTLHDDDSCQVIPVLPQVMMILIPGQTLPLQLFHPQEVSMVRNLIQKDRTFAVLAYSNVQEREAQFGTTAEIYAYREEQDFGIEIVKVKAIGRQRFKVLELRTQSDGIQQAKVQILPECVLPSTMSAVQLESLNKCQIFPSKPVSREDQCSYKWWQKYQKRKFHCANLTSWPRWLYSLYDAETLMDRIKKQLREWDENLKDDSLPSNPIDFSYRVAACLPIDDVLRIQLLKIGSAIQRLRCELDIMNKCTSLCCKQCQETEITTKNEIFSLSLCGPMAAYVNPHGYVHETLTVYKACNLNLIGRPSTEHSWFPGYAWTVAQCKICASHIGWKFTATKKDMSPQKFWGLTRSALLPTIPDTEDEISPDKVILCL

[2] = target: T2, Protein cereblon/Eukaryotic peptide chain release factor GTP-binding subunit ERF3A (Homo sapiens, UniProt Q96SW2+P15170); assay: Molecular glue activity at CRBN/GSPT1 in human 22Rv1 cells assessed as induction of GSPT1 degradation at 0.1 uM incubated for 24 hrs by Western blot analysis relative to control; type: cell-based
[3] = target: T2, Protein cereblon/Eukaryotic peptide chain release factor GTP-binding subunit ERF3A; assay: Molecular glue activity at CRBN/GSPT1 in human Enzalutamide-resistant LNCaP cells assessed as induction of GSPT1 degradation at 1 to 300 nM by Western blot analysis; type: cell-based; details: dose 1-300 nM
CWR22R = assay: Downregulation of GTPBP6 gene expression in human 22Rv1 cells at 3 nM incubated for 24 hrs by Volcano plot analysis; type: functional, cell-based
[4] = test system: Protein cereblon/Androgen receptor (Homo sapiens), P10275+Q96SW2 [UNDEFINED MUTATION]; assay: PROTAC activity at CRBN/Androgen receptor splice variant 7 in human VCaP cells assessed as induction of AR-V7 degradation at 0.01 uM incubated for 24 hrs by Western blot analysis relative to control; type: cell-based
[5] = target: T1, Protein cereblon/Androgen receptor; assay: PROTAC activity at CRBN/AR in human VCaP cells assessed as induction of AR degradation at 20 nM by Western blot analysis; type: cell-based; details: time 1-36 hrs
Target sequence in this assay (Q96SW2 whole entry, looked up, one chain of several): as above

[6] = Selectivity ratio of IC50 for antiproliferative activity against AR-independent human DU-145 cells assessed as cell growth inhibition to IC50 for antiproliferative activity against AR-dependent human 22Rv1 cells assessed as cell growth inhibition; type: functional
[7] = target: T2, Protein cereblon/Eukaryotic peptide chain release factor GTP-binding subunit ERF3A; assay: Molecular glue activity at CRBN/GSPT1 in human VCaP cells assessed as induction of GSPT1 degradation by measuring maximal efficacy incubated for 24 hrs by Western blot analysis relative to control; type: cell-based
[8] = target: T2, Protein cereblon/Eukaryotic peptide chain release factor GTP-binding subunit ERF3A; assay: Molecular glue activity at CRBN/GSPT1 in human VCaP cells assessed as induction of GSPT1 degradation at 20 nM by Western blot analysis; type: cell-based; details: time 1-36 hrs
Androgen receptor = target: T3, Androgen receptor (Homo sapiens, UniProt P10275); assay: Inhibition of wildtype AR (unknown origin) transcriptional activity transfected in HEK293T cells co-transfected with PSA-luciferase reporter and pRL-TK assessed as reduction in PSA-luciferase activity incubated for 24 hrs by luminescence based microplate reader analysis; type: cell-based
T3 sequence (P10275 whole entry): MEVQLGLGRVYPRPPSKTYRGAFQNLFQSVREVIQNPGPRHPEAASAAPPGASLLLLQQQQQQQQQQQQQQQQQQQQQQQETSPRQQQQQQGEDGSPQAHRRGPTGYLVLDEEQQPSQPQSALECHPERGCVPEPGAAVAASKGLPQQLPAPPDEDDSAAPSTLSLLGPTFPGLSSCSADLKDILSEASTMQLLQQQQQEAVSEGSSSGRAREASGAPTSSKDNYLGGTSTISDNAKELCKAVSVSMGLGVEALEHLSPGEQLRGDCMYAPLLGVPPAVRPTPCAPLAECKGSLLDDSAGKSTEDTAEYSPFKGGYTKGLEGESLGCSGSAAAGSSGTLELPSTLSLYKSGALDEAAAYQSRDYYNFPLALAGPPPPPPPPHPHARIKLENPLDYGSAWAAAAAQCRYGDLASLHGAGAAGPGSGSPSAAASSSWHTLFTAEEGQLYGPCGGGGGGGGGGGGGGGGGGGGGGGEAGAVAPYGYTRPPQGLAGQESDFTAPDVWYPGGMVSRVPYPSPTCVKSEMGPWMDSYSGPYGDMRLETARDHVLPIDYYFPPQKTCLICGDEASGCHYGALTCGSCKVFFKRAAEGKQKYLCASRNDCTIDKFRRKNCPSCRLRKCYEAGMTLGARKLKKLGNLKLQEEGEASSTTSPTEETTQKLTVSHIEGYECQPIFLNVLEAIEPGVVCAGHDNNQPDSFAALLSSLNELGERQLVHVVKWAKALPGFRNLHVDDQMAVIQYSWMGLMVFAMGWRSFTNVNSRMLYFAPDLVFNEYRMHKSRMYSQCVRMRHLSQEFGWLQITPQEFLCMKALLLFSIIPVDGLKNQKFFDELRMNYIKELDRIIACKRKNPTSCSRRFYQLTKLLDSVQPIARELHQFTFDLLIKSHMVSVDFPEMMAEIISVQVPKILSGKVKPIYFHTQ

[9] = target: T1, Protein cereblon/Androgen receptor; assay: PROTAC activity at CRBN/AR in human LNCaP cells assessed as decrease in TMPRSS2 mRNA level at 10 to 100 nM incubated for 24 hrs by qRT-PCR analysis; type: cell-based; details: dose 10-100 nM
Target sequence in this assay (Q96SW2 whole entry, looked up, one chain of several): as the sequence (Q96SW2 whole entry, looked up, one chain of several) above

[10] = test system: Protein cereblon/Androgen receptor (Homo sapiens), P10275+Q96SW2 [UNDEFINED MUTATION]; assay: PROTAC activity at CRBN/Androgen receptor splice variant 7 in human 22Rv1 cells assessed as induction of AR-V7 degradation at 20 nM incubated for 36 hrs by Western blot analysis (reference value: 0%); type: cell-based
[11] = Clearance in male ICR mouse at 2 mg/kg, iv by LC-MS/MS analysis; type: ADME, organism-based; details: in vivo
[12] = target: T2, Protein cereblon/Eukaryotic peptide chain release factor GTP-binding subunit ERF3A; assay: Molecular glue activity at CRBN/GSPT1 in human Enzalutamide-resistant VCaP cells assessed as induction of GSPT1 degradation at 1 to 300 nM by Western blot analysis; type: cell-based; details: dose 1-300 nM
[13] = target: T1, Protein cereblon/Androgen receptor; assay: (§1) PROTAC activity at CRBN/Androgen receptor splice variant 7 in human 22Rv1 cells assessed as induction of AR-V7 degradation incubated for 24 hrs by Western blot analysis; type: cell-based
Target sequence in this assay (Q96SW2 whole entry, looked up, change not shown, one chain of several): as the sequence (Q96SW2 whole entry, looked up, one chain of several) above

[14] = test system: Protein cereblon/Androgen receptor (Homo sapiens), P10275+Q96SW2 [UNDEFINED MUTATION]; assay: as §1; type: cell-based
[15] = target: T2, Protein cereblon/Eukaryotic peptide chain release factor GTP-binding subunit ERF3A; assay: Molecular glue activity at CRBN/GSPT1 in human 22Rv1 cells assessed as induction of GSPT1 degradation at 0.01 uM incubated for 6 hrs by Western blot analysis; type: cell-based
22Rv1 = assay: Induction of AR degradation in human 22Rv1 cells transfected with CRBN siRNA at 30 nM incubated for 24 hrs by Western blot analysis; type: cell-based
[16] = target: T1, Protein cereblon/Androgen receptor; assay: PROTAC activity at CRBN/AR in human 22Rv1 cells assessed as induction of AR degradation at 20 nM incubated for 6 hrs by Western blot analysis (reference value: 0 %); type: cell-based
Target sequence in this assay (Q96SW2 whole entry, looked up, one chain of several): as the sequence (Q96SW2 whole entry, looked up, one chain of several) above

[17] = target: T1, Protein cereblon/Androgen receptor; assay: PROTAC activity at CRBN/AR in human 22Rv1 cells assessed as induction of AR degradation at 0.01 uM incubated for 24 hrs by Western blot analysis relative to control; type: cell-based
Target sequence in this assay (Q96SW2 whole entry, looked up, one chain of several): as the sequence (Q96SW2 whole entry, looked up, one chain of several) above

[18] = target: T2, Protein cereblon/Eukaryotic peptide chain release factor GTP-binding subunit ERF3A; assay: Binding affinity to CRBN/GSPT1 in human 22Rv1 cells assessed as ternary complex formation incubated for 6 hrs by co-immunoprecipitation based Western blot analysis; type: cell-based
[19] = target: T2, Protein cereblon/Eukaryotic peptide chain release factor GTP-binding subunit ERF3A; assay: Molecular glue activity at CRBN/GSPT1 in human 22Rv1 cells assessed as induction of GSPT1 degradation at 50 nM preincubated with MLN4924 followed by compound addition and measured after 12 hrs by Western blot analysis; type: cell-based
[20] = target: T2, Protein cereblon/Eukaryotic peptide chain release factor GTP-binding subunit ERF3A; assay: Molecular glue activity at CRBN/GSPT1 in human 22Rv1 cells assessed as induction of GSPT1 degradation at 50 uM preincubated with thalidomide followed by compound addition and measured after 12 hrs by Western blot analysis; type: cell-based

T2 sequence (P15170 whole entry, looked up): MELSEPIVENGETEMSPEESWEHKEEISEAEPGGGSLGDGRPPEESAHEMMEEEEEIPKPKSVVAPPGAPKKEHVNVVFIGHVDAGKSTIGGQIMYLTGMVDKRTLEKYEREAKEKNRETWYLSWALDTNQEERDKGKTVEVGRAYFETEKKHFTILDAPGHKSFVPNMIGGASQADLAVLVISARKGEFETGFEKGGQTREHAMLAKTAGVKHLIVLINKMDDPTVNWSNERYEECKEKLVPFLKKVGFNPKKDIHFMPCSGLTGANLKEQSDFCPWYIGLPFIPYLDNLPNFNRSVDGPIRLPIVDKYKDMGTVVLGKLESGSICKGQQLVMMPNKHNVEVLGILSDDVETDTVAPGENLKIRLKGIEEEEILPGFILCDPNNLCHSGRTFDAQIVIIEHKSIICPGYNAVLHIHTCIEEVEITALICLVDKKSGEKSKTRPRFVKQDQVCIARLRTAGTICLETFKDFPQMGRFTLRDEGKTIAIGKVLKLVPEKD
T2 sequence (Q96SW2 whole entry, looked up): as the sequence (Q96SW2 whole entry, looked up, one chain of several) above
Sequence of Protein cereblon/Androgen receptor (Homo sapiens), P10275+Q96SW2 [UNDEFINED MUTATION] (Q96SW2 whole entry, looked up, change not shown, one chain of several, canonical isoform): as the sequence (Q96SW2 whole entry, looked up, one chain of several) above

COc1ccc(C(C)(C)c2cc(Cl)c(OCC3CCN(C(=O)CCCCCNc4ccc5c(c4)C(=O)N(C4CCC(=O)NC4=O)C5=O)CC3)c(C#N)c2)cc1 (stereo not drawn)
Activity [1]: Dose-dependent-effect
Activity [2]: 93.4%
Activity [3]: Active
Activity (CWR22R): Active
Activity [4]: 85.1%
Activity [5]: Time-dependent-effect
Ratio IC50 [6]: 802
Emax [7]: 96%
Activity [8]: Time-dependent-effect
IC50 (Androgen receptor): 3.2 nM
Activity [9]: Active
Activity [10]: 98.3%
clearance [11]: 18 mL/min/kg
Activity [12]: Active
DC50 [13]: 3 nM
Activity [14]: Dose-dependent-effect
Activity [15]: Active
Activity (22Rv1): inactive
Activity [16]: 49.7%
Activity [17]: 75.2%
Activity [18]: Active
Activity [19]: inactive
Activity [20]: inactive
